These results are taken from ChEMBL document CHEMBL1795317, “Synthesis and antitubercular evaluation of amidoalkyl dibenzofuranols and 1H-benzo[2,3]benzofuro[4,5-e][1,3]oxazin-3(2H)-ones” (Bioorg Med Chem Lett, 2011).

Values after ≈ are worked out from the molar mass of the structure shown.

Data set [1] relates to Mycobacterium tuberculosis. Description: Antimicrobial activity against Mycobacterium tuberculosis H37Rv ATCC 27294 after 28 days by agar dilution method. It counts as functional. Particulars: H37Rv ATCC 27294, 672 h.
A short description of data set [2]: Lipophilicity, log P of the compound. The format is physicochemical. Particulars: octanol/water.

In data set [1], `COc1cc(C(NC(C)=O)c2c(O)ccc3oc4ccccc4c23)cc(OC)c1OC` (stereo not given) returned an MIC of 12.5 µg/mL (≈ 29.7 µM). In data set [2], this compound displayed a lipophilicity (logP) of 2.62.
The compound `NC(=O)c1cnccn1` [PYRAZINAMIDE] came in with an MIC in data set [1] of 50 µg/mL (≈ 406 µM).
With `CC[C@@H](CO)NCCN[C@@H](CC)CO` [ETHAMBUTOL], in data set [1], 3.13 µg/mL (≈ 15.3 µM) was the least that counted as inhibitory (MIC).
`COc1ccc(C2NC(=O)Oc3ccc4oc5ccccc5c4c32)cc1` (stereo not given): 6.25 µg/mL (≈ 18.1 µM) was the least that counted as inhibitory in data set [1] (MIC). In addition, the logP in data set [2] came to 3.48.
Compound `NC(=O)NC(c1ccc(Cl)cc1)c1c(O)ccc2oc3ccccc3c12` (stereo not given) gave a minimal inhibitory concentration (MIC) in data set [1] of 3.13 µg/mL (≈ 8.53 µM). Besides, the log partition coefficient (logP) in data set [2] came to 3.23.
On to `COc1cc(C(NC(=O)c2ccccc2)c2c(O)ccc3oc4ccccc4c23)cc(OC)c1OC` (stereo not given), for which the lowest concentration to inhibit growth in data set [1] (MIC) was 12.5 µg/mL (≈ 25.9 µM). Moreover, the log partition coefficient (logP) in data set [2] amounted to 4.52.
`CC(=O)NC(c1ccc(Cl)cc1)c1c(O)ccc2oc3ccccc3c12` (stereo not given) had an MIC in data set [1] of 6.25 µg/mL (≈ 17.1 µM). In data set [2], this compound had a logP of 3.56.
In the case of `COc1ccc(C(NC(N)=O)c2c(O)ccc3oc4ccccc4c23)cc1` (stereo not given), the lowest concentration to inhibit growth in data set [1] (MIC) was 6.25 µg/mL (≈ 17.2 µM). For the same compound, the log partition coefficient (logP) in data set [2] stood at 2.55.
In data set [1], `O=C(NC(c1ccc(Cl)cc1)c1c(O)ccc2oc3ccccc3c12)c1ccccc1` (stereo not given) displayed an MIC of 12.5 µg/mL (≈ 29.2 µM). This compound gave a logP in data set [2] of 5.46.
Compound `COc1cc(C(NC(N)=O)c2c(O)ccc3oc4ccccc4c23)cc(OC)c1OC` (stereo not given) returned an MIC in data set [1] of 12.5 µg/mL (≈ 29.6 µM). For the same compound, in data set [2], the lipophilicity (logP) worked out at 2.29.
The compound `COc1cc(C2NC(=O)Oc3ccc4oc5ccccc5c4c32)cc(OC)c1OC` (stereo not given) registered an MIC in data set [1] of 12.5 µg/mL (≈ 30.8 µM). Further, in data set [2], the logP was 3.23.
The like results for `CC(=O)NC(c1ccc(Br)cc1)c1c(O)ccc2oc3ccccc3c12` (stereo not given) were, in that order, 6.25 µg/mL (≈ 15.2 µM) and 3.83.
As to `CC(=O)NC(c1ccccc1)c1c(O)ccc2oc3ccccc3c12` (stereo not given), 6.25 µg/mL (≈ 18.9 µM) was the least that counted as inhibitory in data set [1] (MIC). Moreover, the lipophilicity (logP) in data set [2] came to 3.
Compound `O=C1NC(c2ccc(Br)cc2)c2c(ccc3oc4ccccc4c23)O1` (stereo not given) had an MIC in data set [1] of 1.56 µg/mL (≈ 3.96 µM). The same compound registered a logP in data set [2] of 4.43.
Consider `O=C1NC(c2ccc(Cl)cc2)c2c(ccc3oc4ccccc4c23)O1` (stereo not given), for which the lowest concentration to inhibit growth in data set [1] (MIC) was 1.56 µg/mL (≈ 4.46 µM). In data set [2], this compound yielded a logP of 4.16.
For `COc1ccc(C(NC(C)=O)c2c(O)ccc3oc4ccccc4c23)cc1` (stereo not given), it took 6.25 µg/mL (≈ 17.3 µM) to inhibit growth in data set [1] (MIC). In data set [2], this compound registered a logP of 2.87.
Take `NNC(=O)c1ccncc1` [ISONIAZID]: 0.1 µg/mL (≈ 0.729 µM) was the least that counted as inhibitory in data set [1] (MIC).
Compound `O=C1NC(c2ccccc2)c2c(ccc3oc4ccccc4c23)O1` (stereo not given) had an MIC in data set [1] of 3.13 µg/mL (≈ 9.93 µM). For the same compound, the logP in data set [2] was 3.61.
`NC(=O)NC(c1ccc(Br)cc1)c1c(O)ccc2oc3ccccc3c12` (stereo not given): the MIC in data set [1] was found to be 3.13 µg/mL (≈ 7.61 µM). The compound also displayed a log partition coefficient (logP) in data set [2] of 3.5.
